In ChEMBL document CHEMBL1201862, “PubChem BioAssay data set” (2004):
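A five-concentration, 48-hour dose response in 96-well plates underlies each endpoint, interpolated linearly between surrounding concentrations. GI50 marks 50% less growth.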 Calls of active or inactive are those of the source. No stated cut-off is given here; in the data, active = GI50 up to about 1.1 µM and inactive = higher. Where a SMILES comes first, the peptide text is derived from it. The star is where a group is joined. X33 = O=C(c1ccc(-c2ccc(Cl)cc2Cl)o1)*

Legend:
Test in all cases: NCI tumour cell line growth inhibition, 48 h
786-0 = test system: 786-0
EKVX = test system: EKVX
HCC 2998 = test system: HCC 2998
HT-29 = test system: HT-29
KM12 = test system: KM12
M14 = test system: M14
MCF7 = test system: MCF7
MDA-MB-435 = test system: MDA-MB-435
MDA-N = test system: MDA-N
NCI-H226 = test system: NCI-H226
NCI-H460 = test system: NCI-H460
NCI-H522 = test system: NCI-H522
NCI/ADR-RES = test system: NCI/ADR-RES
OVCAR-5 = test system: OVCAR-5
OVCAR-8 = test system: OVCAR-8
PC-3 = test system: PC-3
SK-MEL-5 = test system: SK-MEL-5
SNB-75 = test system: SNB-75
TK-10 = test system: TK-10
UACC-62 = test system: UACC-62

Measured: GI50

CCOC(=O)C1(Cc2ccc(C)cc2)Cc2ccc(C)cc2C1=O (stereo not given)
inactive: 786-0 31.1 µM | EKVX 36.7 µM | HCC 2998 16.8 µM | HT-29 5.43 µM | KM12 4.57 µM | M14 9.59 µM | MCF7 6.52 µM | MDA-MB-435 2.81 µM | MDA-N 2.38 µM | NCI-H226 35.2 µM | NCI-H460 27.9 µM | NCI-H522 6.34 µM | NCI/ADR-RES 5.01 µM | OVCAR-5 52.5 µM | OVCAR-8 27.2 µM | PC-3 26 µM | SK-MEL-5 6.4 µM | SNB-75 24.3 µM | TK-10 23.5 µM | UACC-62 11.8 µM

N#CCc1nc(-c2cc3ccccc3oc2=O)cs1
inactive: 786-0 > 100 µM | EKVX 41.4 µM | HCC 2998 > 100 µM | HT-29 54 µM | KM12 26.7 µM | M14 35.6 µM | MCF7 54.8 µM | MDA-MB-435 44.6 µM | MDA-N 37.2 µM | NCI-H226 36.8 µM | NCI-H460 75.2 µM | NCI-H522 15.9 µM | NCI/ADR-RES 79.6 µM | OVCAR-5 > 100 µM | OVCAR-8 63.2 µM | PC-3 29.8 µM | SK-MEL-5 26.4 µM | SNB-75 19.1 µM | TK-10 > 100 µM | UACC-62 18.7 µM

N#Cc1nc(-c2ccccc2C(=O)O)oc1N
inactive: 786-0 > 100 µM | EKVX > 100 µM | HCC 2998 > 100 µM | HT-29 > 100 µM | KM12 > 100 µM | M14 > 100 µM | MCF7 > 100 µM | MDA-MB-435 > 100 µM | MDA-N > 100 µM | NCI-H226 > 100 µM | NCI-H460 > 100 µM | NCI-H522 > 100 µM | NCI/ADR-RES > 100 µM | OVCAR-5 > 100 µM | OVCAR-8 > 100 µM | PC-3 > 100 µM | SK-MEL-5 > 100 µM | SNB-75 > 100 µM | TK-10 > 100 µM | UACC-62 > 100 µM

CCC(C)C(NC(=O)CNC(=O)C(Cc1ccccc1)NC(=O)C1CCCN1C(=O)c1ccc(-c2ccc(Cl)cc2Cl)o1)C(=O)OC (stereo not given) (X33-PFGI-OMe; configuration not given here)
inactive: 786-0 27.1 µM | EKVX 24.1 µM | HCC 2998 21.3 µM | HT-29 15 µM | KM12 37.5 µM | M14 46.8 µM | MCF7 20.8 µM | MDA-MB-435 38.9 µM | MDA-N 23.4 µM | NCI-H226 > 100 µM | NCI-H460 15.7 µM | NCI-H522 29.8 µM | NCI/ADR-RES 36.7 µM | OVCAR-5 74.8 µM | OVCAR-8 27.4 µM | PC-3 8 µM | SK-MEL-5 12.2 µM | SNB-75 23.6 µM | TK-10 51.9 µM | UACC-62 25.2 µM

OC1C2CCCCN2C[C@@H](O)[C@H]1O (stereo not given in full)
inactive: 786-0 > 100 µM | EKVX > 100 µM | HCC 2998 > 100 µM | HT-29 > 100 µM | KM12 > 100 µM | M14 > 100 µM | MCF7 > 100 µM | MDA-MB-435 > 100 µM | MDA-N > 100 µM | NCI-H226 > 100 µM | NCI-H460 > 100 µM | NCI-H522 76.6 µM | NCI/ADR-RES > 100 µM | OVCAR-5 > 100 µM | OVCAR-8 > 100 µM | PC-3 > 100 µM | SK-MEL-5 > 100 µM | SNB-75 > 100 µM | TK-10 > 100 µM | UACC-62 > 100 µM
